This note sets out measurements from ChEMBL document CHEMBL1201862, “PubChem BioAssay data set” (2004).

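Each compound was tested at five concentrations against cells in 96-well plates for 48 hours. The concentration for 50% growth inhibition is given as GI50.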 Calls of active or inactive are those of the source. Cut-off read from the data, not from the text of the source: active = GI50 up to about 1.1 µM and inactive = higher.

Some test systems named below: A498; ACHN; CCRF-CEM; HCT-15; HOP-92; HT-29; IGROV-1; K562; PC-3; RPMI-8226; RXF 393; SF-539; SK-MEL-28; SK-MEL-5; SNB-19; SR; COLO 205; MDA-MB-435; SK-MEL-2; UACC-62.
Holding throughout (assay): NCI-60 cell line screen, 48 h

For `Cc1ccc(/C=C2\Cc3cccc(C)c3C2=O)c(C(=O)O)c1`, the GI50 was > 100 µM (inactive) in the assay on A498; 28.7 µM (inactive) with ACHN; 36.9 µM (inactive) in the assay on CCRF-CEM; 39.2 µM in the assay with HCT-15; 17.3 µM (inactive) in the assay on HOP-92; > 100 µM (inactive) in the assay with HT-29. Besides, the GI50 is 96.6 µM (inactive) with IGROV-1; 99.8 µM (inactive) in the assay with K562; 99.5 µM (inactive) in the assay on PC-3; 36.3 µM (inactive) with RPMI-8226; 29.3 µM (inactive) in the assay with RXF 393; 74.8 µM (inactive) with SF-539. For the same compound, the GI50 with SK-MEL-28 was 97.3 µM (inactive); in the assay with SK-MEL-5 it was 71.1 µM (inactive); in the assay on SNB-19, > 100 µM (inactive); in the assay on SR, 90.4 µM (inactive).
`CC1=CC(=O)c2ccccc2C1=O` [MENADIONE]: the GI50 was 22.6 µM (inactive) in the assay with A498; 3.36 µM (inactive) in the assay with ACHN; 2.03 µM (inactive) in the assay with CCRF-CEM; 17.7 µM (inactive) with COLO 205; 3.42 µM in the assay with HCT-15; 1.55 µM (inactive) with HOP-92. Moreover, the GI50 in the assay on HT-29 was 17.9 µM (inactive); in the assay with IGROV-1, 15.7 µM (inactive); with K562, 2.38 µM (inactive); with MDA-MB-435, 1.84 µM (inactive); in the assay with PC-3 it was 3.61 µM (inactive); in the assay with RPMI-8226, 1.72 µM (inactive). The GI50 in the assay on RXF 393 is 13.4 µM (inactive); in the assay on SF-539, 3.61 µM (inactive); in the assay with SK-MEL-28, 4.94 µM (inactive); in the assay with SK-MEL-2, 8.3 µM (inactive); in the assay with SK-MEL-5 it was 2.18 µM (inactive); in the assay with SNB-19, 17.9 µM (inactive). The GI50 in the assay on UACC-62 was 4.67 µM (inactive).
Consider `O=C(O)/C=C/C(=O)Nc1nc[nH]n1`, for which the GI50 is > 100 µM (inactive) in the assay on A498; > 100 µM (inactive) in the assay with ACHN; > 100 µM (inactive) in the assay with COLO 205; more than 100 µM in the assay with HCT-15; > 100 µM (inactive) in the assay with HOP-92; > 100 µM (inactive) in the assay with HT-29. Also, the GI50 in the assay with IGROV-1, in the assay with MDA-MB-435, with PC-3, with RPMI-8226, in the assay on RXF 393 and in the assay on SF-539 was > 100 µM (inactive) each time. Further, the GI50 in the assay on SK-MEL-28, in the assay with SK-MEL-2, in the assay with SK-MEL-5, in the assay on SNB-19 and with UACC-62 was > 100 µM (inactive) each time.
In the case of `C/C=C(\C)C(=O)O[C@@H]1CC(C)(C)CC2C3=CCC4[C@]56CC[C@](O)(OC5)C(C)(C)C6CC[C@@]4(C)C3(C)CC[C@]21C(=O)O` (stereo not given in full), the GI50 was > 100 µM (inactive) in the assay with A498; 59.4 µM (inactive) in the assay with ACHN; > 100 µM (inactive) in the assay with CCRF-CEM; 83.9 µM (inactive) in the assay with COLO 205; 83.4 µM in the assay on HCT-15; 97.1 µM (inactive) in the assay on HT-29. Also, the GI50 is 54.3 µM (inactive) with IGROV-1; > 100 µM (inactive) in the assay on K562; > 100 µM (inactive) in the assay on MDA-MB-435; 39.3 µM (inactive) with PC-3; 87.9 µM (inactive) in the assay on RPMI-8226; > 100 µM (inactive) in the assay on RXF 393. Also, the GI50 in the assay on SF-539, with SK-MEL-28, in the assay on SK-MEL-2, in the assay on SK-MEL-5, with SNB-19 and in the assay with UACC-62 was > 100 µM (inactive) each time.
For the compound `CCCCOC(=O)C(=O)C(CC(C(=O)Cc1ccccc1)c1ccccc1)C(=O)C=C(C)C` (stereo not given), the GI50 with ACHN was > 100 µM (inactive); in the assay with CCRF-CEM it was 76.6 µM (inactive); in the assay with COLO 205 it was > 100 µM (inactive); in the assay with HCT-15, more than 100 µM; in the assay with HOP-92, > 100 µM (inactive); with HT-29, > 100 µM (inactive). Moreover, the GI50 in the assay on IGROV-1, in the assay with MDA-MB-435, with PC-3, in the assay on RXF 393, in the assay on SF-539 and with SK-MEL-28 was > 100 µM (inactive) throughout. The GI50 with SK-MEL-2, with SK-MEL-5, with SNB-19 and in the assay with UACC-62 was > 100 µM (inactive) in each case.
As for `COc1ccc(Nc2[nH]c(C(C)=O)c(N)c2C(=S)Nc2ccccc2)cc1`, the GI50 was > 100 µM (inactive) in the assay on A498; 77.6 µM (inactive) in the assay with ACHN; > 100 µM (inactive) in the assay with CCRF-CEM; 21.9 µM (inactive) in the assay with COLO 205; 35.6 µM in the assay on HCT-15; > 100 µM (inactive) with HOP-92. Besides, the GI50 in the assay on HT-29 is 35.3 µM (inactive); in the assay with IGROV-1, 78.2 µM (inactive); with K562, 45.9 µM (inactive); in the assay with MDA-MB-435, 49.4 µM (inactive); with RXF 393 it was 16.6 µM (inactive); in the assay on SF-539, 73.1 µM (inactive). The GI50 was 36.2 µM (inactive) in the assay on SK-MEL-28; 32.9 µM (inactive) with SK-MEL-2; 37.2 µM (inactive) with SK-MEL-5; 82.8 µM (inactive) in the assay on SNB-19; 33.7 µM (inactive) in the assay with SR; 25.9 µM (inactive) with UACC-62.
For `CCCCc1ccc(Nc2nc(Cl)c3[nH]cnc3n2)cc1`, the GI50 in the assay with A498 was 21.4 µM (inactive); in the assay with ACHN, 20.8 µM (inactive); in the assay on CCRF-CEM, 39.1 µM (inactive); in the assay on COLO 205 it was 24.2 µM (inactive); in the assay on HCT-15, 18 µM; with HOP-92, 11.6 µM (inactive). Besides, the GI50 in the assay with HT-29 is 19.9 µM (inactive); with IGROV-1 it was 25.6 µM (inactive); in the assay with K562, 32.7 µM (inactive); with MDA-MB-435 it was 16.8 µM (inactive); in the assay with RPMI-8226, 33.2 µM (inactive); in the assay with RXF 393 it was 17.1 µM (inactive). The GI50 is 18.7 µM (inactive) in the assay with SF-539; 14.6 µM (inactive) in the assay on SK-MEL-2; 16.7 µM (inactive) in the assay on SK-MEL-5; 19.1 µM (inactive) in the assay with SNB-19; 47.8 µM (inactive) with SR; 16.4 µM (inactive) in the assay on UACC-62.
As for `O=C1C(OC(=O)c2ccccc2)=C(c2ccc(O)cc2)C(=O)C(OC(=O)c2ccccc2)=C1c1ccc(O)cc1`, the GI50 with A498 is > 100 µM (inactive); with ACHN, > 100 µM (inactive); in the assay on CCRF-CEM, 42.9 µM (inactive); in the assay on COLO 205, > 100 µM (inactive); in the assay with HCT-15, more than 100 µM; in the assay with HOP-92, > 100 µM (inactive). Also, the GI50 in the assay on HT-29, with IGROV-1, in the assay with K562, with MDA-MB-435, in the assay with PC-3 and in the assay on RPMI-8226 was > 100 µM (inactive) in each case. The GI50 is > 100 µM (inactive) in the assay with SF-539; > 100 µM (inactive) in the assay with SK-MEL-28; 32 µM (inactive) with SK-MEL-2; > 100 µM (inactive) in the assay with SK-MEL-5; 46 µM (inactive) in the assay with SNB-19; 44.7 µM (inactive) with UACC-62.
